The structures appear in SMILES notation.

The subject of assay [1] is BMDM. Kind of assay: cytosolic Ox-mtDNA (8-OH-dG ELISA of cytosolic mtDNA) in BMDM. It is filed as cell-based, mouse. The conditions noted are these: LPS-primed BMDM, compound 10 μM 16 h, ATP 4 mM 1 h. In general terms: ELISA stands for enzyme-linked immunosorbent assay.
Experimental: (§1) Bone marrow cells were cultured in high glucose DMEM supplemented with 10% FBS, 20% L929-cell conditioned medium, and 100 U/mL penicillin-streptomycin for 7-10 days at 37° C. with 5% CO2 (Hornung et al., 2008).
(§2) BMDM were stimulated as indicated. […] Briefly, BMDM were washed with PBS and harvested, 10% of which were saved for DNA extraction of whole cells. The remaining BMDM resuspended with pre-chilled mitochondrial extraction buffer 1 (220 mM mannitol, 70 mM sucrose, 20 mM HEPES-KOH, pH 7.5, 1 mM EDTA and 2 mg/mL bovine serum albumin) supplemented with a protease inhibitor cocktail and a phosphatase inhibitor cocktail were passed through a 25-G syringe (BD Biosciences) 20 times on ice. The homogenized cells were centrifuged at 1000×g for 15 minutes at 4° C. The supernatant was further centrifuged at 10,000×g for 10 minutes at 4° C. to pellet the mitochondria from supernatant cytosolic fraction. qPCR was performed after DNA purification with AllPrep DNA/RNA Mini Kit according to manufacturer's instructions, from both whole cell extracts and cytosolic fractions using mtDNA primers (D-loop, Cox1, non-NUMT), or after DNA purification from whole cell extracts using nuclear DNA primers (Tert, 18S, B2m). The Ct values obtained for mtDNA abundance in whole cell extracts served as normalization controls for the mtDNA values obtained from the cytosolic fractions. For the measurement of Ox-mtDNA, purified mtDNA was extracted from the cytosolic or mitochondrial fractions as indicated. The 8-OH-dG content was then quantified using 8-hydroxy 2-deoxyguanosine ELISA Kit, per manufacturer's instructions.
Assay [2] has as its system BMDM. Briefly: cytosolic mtDNA (qPCR after cellular fractionation) in BMDM. It is filed as cell-based, mouse. The conditions noted are these: LPS-primed BMDM, compound 10 μM 16 h, ATP 4 mM 1 h.
Experimental: as §1, §2
Assay [3] deals with NLRP3 inflammasome. Briefly: NLRP3 inflammasome activation (Casp1 p20 and mature IL-1β, IB and ELISA) in BMDM. It is filed as cell-based, mouse. To be noted: LPS-primed BMDM, compound pretreatment 16 h, challenged with NLRP3 activators. The source says: Paired antibodies (capture and detection) and standard recombinant mouse IL-1β and TNF were used to determine mouse cytokine concentrations according to manufacturer's instructions.

Assay [4] deals with BMDM. Briefly: total mtDNA (LPS-stimulated mtDNA synthesis, qPCR) in BMDM. It is filed as cell-based, mouse. The conditions noted are these: compound 10 μM 16 h, before or after LPS priming. The source says: Nuclear DNA encoding telomerase reverse transcriptase (Tert), 18S ribosomal RNA and β2 microglobulin (B2m) was used for normalization.
Background: Real-time PCR tracks product formation cycle by cycle.

Assay [5] deals with BMDM. Briefly: mtDNA fragmentation (agarose gel of cytosolic and mitochondrial DNA) in BMDM. It is filed as cell-based, mouse. The conditions noted are these: FEN1-IN-4 10 μM 16 h, LPS-primed, ATP.
Text: To analyze DNA fragmentation and extrusion in mitochondrial and cytosolic fractions, BMDM (15000,000 cells per group) were stimulated as indicated and fractionalized as above. […] Cytosolic, mitochondrial or nuclear DNAs were purified using AllPrep DNA/RNA Mini Kit according to manufacturer's instructions and analyzed on 1% agarose gels stained with ethidium bromide.
Assay [6] deals with NLRP3 inflammasome. Kind of assay: alum-induced peritonitis in mice. Format: in vivo, mouse. On the procedure:
8-12-week-old male C57BL/6 mice and WT or mt-Ogg1Tg mice were allocated randomly and i.p. injected with alum (1 mg dissolved in 0.2 mL sterile PBS) or PBS. Peritoneal lavage was collected 4 h post-injection to measure cytokine amounts by ELISA. […] Neutrophils (CD11b^+Ly6G^+F4/80^−) and monocytes (CD11b^+Ly6C^+Ly6G^−) present in peritoneal lavage fluid were quantified by flow cytometry. For blocking Fc-mediated interactions, mouse cells were pre-incubated with 0.5-1 μg of purified anti-mouse CD16/CD32 per 100 μL. Isolated cells were stained with labelled antibodies in PBS with 2% FCS and 2 mM EDTA or cell staining buffer (Biolegend). Dead cells were excluded based on staining with propidium iodide (PI). Absolute numbers of immune cell subtypes in the peritoneum were calculated by multiplying total peritoneal cell numbers by percentages of immune cell subtypes amongst total cells. Cells were analyzed on a Beckman Coulter Cyan ADP flow cytometer. Paired antibodies (capture and detection) and standard recombinant mouse IL-1β and TNF were used to determine mouse cytokine concentrations according to manufacturer's instructions.

The nature of assay [7]: ccf-mtDNA and Fpg-sensitive Ox-mtDNA in peritoneal exudates of alum-challenged mice. Format: in vivo, mouse. The conditions noted are these: FEN1-IN-4 40 mg/kg, exudates 4 and 16 hrs post-challenge.
For assay [8], the system named is BMDM. Kind of assay: extracellular (cell-free) mtDNA released by donor BMDM. Format: cell-based, mouse. To be noted: LPS-primed donor BMDM pretreated with compound, challenged with ATP or nigericin. On the procedure:
Extracellular DNA of donor macrophages (1500,000 cells per group) was isolated using QIAamp Circulating Nucleic Acid Kit according to manufacturer's instructions and then eluted in 300 μL distilled H2O and quantified using spectrophotometric analysis at 260/280 nm with Nanodrop. […] Applicant used 5% of the prepared DNA for qPCR measurement of extracellular mtDNA and the remaining 95% were added to the recipient BMDM for analyzing the paracrine immunostimulatory effects.

The test system of assay [9] is BMDM. Kind of assay: stimulation of naive recipient BMDM by cell-free mtDNA (cytokine and ISG mRNA, qPCR). It is filed as cell-based, mouse. To be noted: recipient BMDM incubated 24 h with DNA from compound-pretreated donor BMDM; cytokine and ISG mRNAs. On the procedure:
RNA was extracted using AllPrep DNA/RNA Mini kit, and cDNA was synthesized using SuperScript™ VILO™ cDNA Synthesis Kit. mRNA expression was determined by QPCR in a CFX96 thermal cycler (Biorad) as described (Xian et al., 2021). Data are presented in arbitrary units and calculated by the 2^(−ΔΔCT) method. Primer sequences were obtained from the NIH qPrimerDepot (http://mouseprimerdepot.nci.nih.gov) and provided by Integrated DNA technologies.
Extracellular DNA of donor macrophages (1500,000 cells per group) was isolated using QIAamp Circulating Nucleic Acid Kit according to manufacturer's instructions and then eluted in 300 μL distilled H2O and quantified using spectrophotometric analysis at 260/280 nm with Nanodrop. DNA amounts purified among the different treatment groups vary. The DNA amount secreted from LPS-primed donor BMDM is low, approximately at 0.1 μg. The amount of DNA released by LPS-primed donor BMDM challenged with ATP is about 1.3 μg, while the amount of DNA released by LPS-primed donor BMDM challenged with nigericin is around 2 μg. The amount of DNA secreted by LPS-primed donor BMDM challenged with MSU or alum is about 0.7 μg. Applicant used 5% of the prepared DNA for qPCR measurement of extracellular mtDNA and the remaining 95% were added to the recipient BMDM for analyzing the paracrine immunostimulatory effects.

For assay [10], the system named is BMDM. Kind of assay: mtROS (MitoSOX) in BMDM. The conditions noted are these: LPS-primed BMDM, compound pretreatment 16 h, ATP or nigericin.
Experimental: as §1
Mitochondrial membrane potential was measured using TMRM according to manufacturer's instructions. Briefly, BMDM were primed or not with LPS for 4 h, and further stimulated with ATP or nigericin for 60 minutes. Cells were incubated with 200 nM TMRM for 30 minutes at 37° C. After washing twice, fluorescence intensity was determined per manufacturer's instructions using a FilterMax F5 multimode plate reader (Molecular Devices). Mitochondrial reactive oxygen species (mtROS) were measured using MitoSOX (Invitrogen) as described (Xian et al., 2021). BMDM treated as indicated were loaded with 4 μM MitoSOX for 20 minutes. After washing with PBS twice, cells were resuspended in PBS and counted. Equal numbers of cells from different treatment groups were then plated onto 96-well plates for fluorescence reading. To quantify [Ca^2+]m by 5 μM Rhod-2 or intracellular Ca^2+ intensity by 1 μM Fluo-4, BMDM treated as indicated were loaded with the respective dyes according to manufacturer's instructions for 30 minutes. After washing twice, fluorescence intensity was determined using a FilterMax F5 multimode plate reader (Molecular Devices). To analyze mPTP opening by calcein-quenching assay, BMDM treated as indicated were loaded with calcein at 2 μM and CoCl2 at 160 μM for 30 minutes at 37° C. according to manufacturer's instructions. After washing twice, fluorescence intensity was determined per with a FilterMax F5 multimode plate reader (Molecular Devices).
For assay [11], the system named is BMDM. Briefly: 8-OH-dG content of mtDNA from mitochondria of BMDM. To be noted: LPS-primed BMDM, FEN1-IN-4 pretreatment, ATP or nigericin.
Experimental: as §1, §2
In assay [12] the test system is STING. Kind of assay: STING Ser365 phosphorylation (puncta by immunofluorescence, immunoblot) in BMDM. To be noted: CsA 1 μM, VBIT-4 10 μM or FEN1-IN-4 10 μM 16 hrs.
Experimental: as §1
Whole cell lysates were prepared in RIPA buffer (25 mM Tris-HCl pH 7.6, 150 mM NaCl, 1% NP-40, 1% sodium deoxycholate, 0.1% SDS) containing a protease inhibitor cocktail and a phosphatase inhibitor cocktail. Protein concentrations were determined using BCA Protein Assay Kit. Equal amounts of protein were separated by SDS-PAGE and transferred onto PVDF membranes, blocked in 5% BSA in 1×TBST for 1 h and incubated with primary antibodies overnight. Secondary antibodies were added for 1 h and detection was performed using Clarity Western ECL Substrate.
BMDM were fixed in 4% paraformaldehyde (PFA), permeabilized in 0.2% Triton X-100,and blocked in 1×PBS supplemented with 3% BSA. […] Nuclei were counterstained with DAPI.
Where [13] appears, read: FEN1-IN-4 40 mg/kg 16 h prior to i.p. alum 1 mg, exudate 4 h later.
Where [14] appears, read: FEN1-IN-4 40 mg/kg 16 h prior to i.p. alum, 16 h.

Consider `O=c1c2ccccc2n(CC2CC2)c(=O)n1O` [FEN1-IN-4], for which the “cytosolic Ox-mtDNA (release)” value in assay [1] was “abrogated”. Moreover, in assay [2], the “cytosolic mtDNA release” value was “abrogated”. Further, the “NLRP3 inflammasome activation (Casp1 activation and mature IL-1β secretion)” value in assay [3] is recorded as “dose-dependent inhibition”. In [4], the “LPS-stimulated mtDNA synthesis (total mtDNA)” value is “did not affect”. Also, in assay [5], the mtDNA fragmentation entry is on record as “abrogated”. Besides, in [6] (setting [13]), the “alum-induced NLRP3 inflammasome-dependent IL-1β production in vivo (peritoneal IL-1β)” value was “inhibited” and the “peritoneal TNF secretion in vivo” value is listed as “without an effect”. Moreover, in assay [6] (setting [14]), the “monocyte infiltration (peritoneal)” value was “reduced” and the “neutrophil infiltration (peritoneal)” value is “reduced”. Moreover, the “ccf-mtDNA secretion into peritoneal exudates” value in assay [7] is “inhibited”. Also, the “Ox-mtDNA secretion into peritoneal exudates” value in assay [7] (Fpg-sensitive qPCR) is on record as “inhibited”. Besides, the “cell-free mtDNA release” value in [8] was “inhibited”. Besides, the “immunostimulatory activity of DNA secreted by treated donor BMDM” value in [9] is given as “inhibited”. Also, the mtROS production result in assay [10] was “no effect”. In addition, the “Ox-mtDNA generation (8-OH-dG in mitochondrial mtDNA)” value in [11] is “no effect”. Moreover, in [12] (LPS-primed BMDM, ATP or nigericin), the “formation of Ser^365 phosphorylated STING puncta” value is “diminished”. Moreover, the “ATP-induced STING Ser^365 phosphorylation (immunoblot) in Nlrp3−/− BMDM” value in assay [12] (LPS-primed Nlrp3−/− BMDM, ATP) is reported as “completely blocked”.
